Measured values reported in PubChem BioAssay AID2060906 (Molecular Pharmacology Branch, DTP, NCI, 2025).

System: 485176-168-R4-J1-PDC complex spheroid growth
Assay: Anticancer human tumor 485176-168-R4-J1-PDC patient-derived pancreatic adenocarcinoma cell line growth inhibition [RAS]
Conditions: for IC50: curve of first compound; for viability, T/C: stronger effect = lower value
From the text: RAS pathway inhibitors in Combinations in Complex Spheroids
A high-throughput screen of multi-cell type tumor spheroids was designed to identify active combinations of RAS pathway inhibitors and targeted small molecules. Complex spheroids include a stromal component modeled by human endothelial cells (HUVEC) and fibroblasts modeled by human mesenchymal stem cells (MSCs). The concentration ranges selected for each drug and investigational agent were based upon clinically achievable concentrations if the clinical Cmax of the agent was known.
Compounds. The drugs and investigational agents: abemaciclib (NSC768073), cobimetinib (NSC768068), divarasib (GDC6063, NSC841802), docetaxel (NSC628503), GDC-1971 (RLY-1971, NSC841576), gemcitabine (NSC613327), inavolisib (NSC800729), ipatasertib (NSC767898), KB-0742 (NSC834161), MRTX-1133 (NSC836407), osimertinib (NSC779217), RMC-4630 (NSC839698), RMC-6236 (NSC851965), RMC-6291 (NSC852671), Ro-3306 (NSC812927), sapanisertib (NSC764658), SN-38 (NSC673596), staurosporine (NSC755774), SY5609 (NSC837396), and tovorafenib (DAY101, NSC766906), were obtained from the National Cancer Institute (NCI) Developmental Therapeutics Program Chemical Repository. The FDA-approved anticancer drug set is available from the NCI Developmental Therapeutics Program. […] The stock solutions were prepared in dimethyl sulfoxide (DMSO, Sigma-Aldrich, St. Louis, MO, cat. D2650) at 800-fold the tested concentration and stored at -70 degrees C prior to their use. All drugs and investigational agents were tested over a range starting from a high concentration at or near the clinical Cmax and decreasing in half-log increments. If the clinical Cmax for an agent had not been determined, the highest concentration tested was 10 microM.
Cell Culture. All cells were maintained in an incubator at 37 degrees C and 5% CO2 with 95% humidity. The PDC lines were cultured according to standard operating procedures established by the NCI PDMR. All PDCs were thawed and cultured in Matrigel-coated flasks prepared with a working solution of 1X Ham's F-12 nutrient mix, without supplementation (Invitrogen, Waltham, MA, cat. 11765054), 100 U/mL penicillin-streptomycin (Invitrogen, cat. 15140122), and 2.5% Matrigel (Corning Inc., Corning, NY, cat. 354248) for the first three passages. The 362531-283-R-J2-PDC and 782815-120-R-J1-PDC lines were cultured in 6C/Colon 1B media, which includes advanced DMEM/F-12 (Thermo Fisher Scientific, cat. 12634028), 10 mM HEPES (Thermo Fisher Scientific, cat. 15630080), 1X GlutaMAX supplement (Thermo Fisher Scientific, cat. 35050061), 0.1 mg/mL primocin (InvivoGen, San Diego, CA, cat. ant-pm-2), 10% defined fetal bovine serum, heat inactivated (HyClone Laboratories Inc., Logan, UT, cat. SH30070.03HI), 50% L-WRN conditioned media (ATCC, cat. CRL-3276), 1.25 mM N-Acetyl-L-cysteine (Sigma-Aldrich, cat. A9165), 10 mM nicotinamide (Sigma-Aldrich, cat. N0636), 1X B-27 supplement (Thermo Fisher Scientific, cat. 17504044), 1X N-2 supplement (Thermo Fisher Scientific, cat. 17502048), 50 ng/mL human EGF (Thermo Fisher Scientific, cat. PHG0311), and 10 microM Y-27632 dihydrochloride (Tocris Bioscience, cat. 1254). The K12877-001-R-J1-PDC line was cultured in 6I media, which includes all 6C/Colon 1B media plus 10 ng/mL human FGF-10 (PeproTech, cat. 100-26), 1 ng/mL human FGF-2 (PeproTech, cat. 100-18B), 1 µM prostaglandin E2 (Tocris Bioscience, cat. 2296), […] hydrocortisone (Sigma-Aldrich, cat. H4001), and […] bovine insulin (Sigma-Aldrich, cat. I6634). The K86415-001-R-J1-PDC line was cultured in 6D media, which includes all 6C/Colon 1B media components minus the L-WRN conditioned media. The 485176-168-R4-J1-PDC was cultured in PANC media, which includes all 6C/Colon 1B media plus 100 ng/mL human FGF-10 (PeproTech, cat. 100-26), 500 nM SB-431542 (Selleckchem, cat. S1067), and 10 nM gastrin (Tocris Bioscience, cat. 3006). […]

[1] = second compound 0.000949 µM, first compound 0.00316 µM
[2] = second compound 0.000949 µM, first compound 0.01 µM
[3] = second compound 0.000949 µM, first compound 0.0316 µM
[4] = second compound 0.000949 µM, first compound 0.1 µM
[5] = second compound 0.000949 µM, first compound 0.316 µM
[6] = second compound 0.000949 µM, first compound 1 µM
[7] = second compound 0.003 µM, first compound 0.00316 µM
[8] = second compound 0.003 µM, first compound 0.01 µM
[9] = second compound 0.003 µM, first compound 0.0316 µM
[10] = second compound 0.003 µM, first compound 0.1 µM
[11] = second compound 0.003 µM, first compound 0.316 µM
[12] = second compound 0.003 µM, first compound 1 µM
[13] = second compound 0.00949 µM, first compound 0.00316 µM
[14] = second compound 0.00949 µM, first compound 0.01 µM
[15] = second compound 0.00949 µM, first compound 0.0316 µM
[16] = second compound 0.00949 µM, first compound 0.1 µM
[17] = second compound 0.00949 µM, first compound 0.316 µM
[18] = second compound 0.00949 µM, first compound 1 µM
[19] = second compound 0.03 µM, first compound 0.00316 µM
[20] = second compound 0.03 µM, first compound 0.01 µM
[21] = second compound 0.03 µM, first compound 0.0316 µM
[22] = second compound 0.03 µM, first compound 0.1 µM
[23] = second compound 0.03 µM, first compound 0.316 µM
[24] = second compound 0.03 µM, first compound 1 µM
[25] = second compound 0.0949 µM, first compound 0.00316 µM
[26] = second compound 0.0949 µM, first compound 0.01 µM
[27] = second compound 0.0949 µM, first compound 0.0316 µM
[28] = second compound 0.0949 µM, first compound 0.1 µM
[29] = second compound 0.0949 µM, first compound 0.316 µM
[30] = second compound 0.0949 µM, first compound 1 µM
[31] = second compound 0.3 µM, first compound 0.00316 µM
[32] = second compound 0.3 µM, first compound 0.01 µM
[33] = second compound 0.3 µM, first compound 0.0316 µM
[34] = second compound 0.3 µM, first compound 0.1 µM
[35] = second compound 0.3 µM, first compound 0.316 µM
[36] = second compound 0.3 µM, first compound 1 µM
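Also: spheroids exposed to compounds for seven days before readout.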
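For viability, T/C in this document: luminescence viability expressed relative to DMSO vehicle wells set as 100%.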

C=CC(=O)N1CCN(c2nc(OCC3CCCN3C)nc3c(F)c(-c4nc(N)cc(C)c4C(F)(F)F)c(Cl)cc23)C(C)C1 (centres undefined) + CCn1c(-c2cccnc2C(C)OC)c2c3cc(ccc31)N1CCOC(CC(NC(=O)C(C(C)C)N(C)C(=O)C3(F)CCN(C(=O)C#CC(C)(C)N(C)C)CC3)C(=O)N3CCCC(N3)C(=O)OCC(C)(C)C2)C1
IC50 (second compound 0.000949 µM): > 1000 nM
IC50 (second compound 0.003 µM): > 1000 nM
IC50 (second compound 0.00949 µM): > 1000 nM
IC50 (second compound 0.03 µM): > 1000 nM
IC50 (second compound 0.0949 µM): > 1000 nM
IC50 (second compound 0.3 µM): > 1000 nM
viability, T/C [1]: 109%
viability, T/C [2]: 90.2%
viability, T/C [3]: 108%
viability, T/C [4]: 88.8%
viability, T/C [5]: 113%
viability, T/C [6]: 89.4%
viability, T/C [7]: 94.2%
viability, T/C [8]: 94.5%
viability, T/C [9]: 96.2%
viability, T/C [10]: 93.4%
viability, T/C [11]: 115%
viability, T/C [12]: 105%
viability, T/C [13]: 92.2%
viability, T/C [14]: 93.6%
viability, T/C [15]: 96.9%
viability, T/C [16]: 94.4%
viability, T/C [17]: 105%
viability, T/C [18]: 108%
viability, T/C [19]: 98.5%
viability, T/C [20]: 105%
viability, T/C [21]: 101%
viability, T/C [22]: 111%
viability, T/C [23]: 117%
viability, T/C [24]: 85.8%
viability, T/C [25]: 88.2%
viability, T/C [26]: 83.7%
viability, T/C [27]: 101%
viability, T/C [28]: 95.1%
viability, T/C [29]: 115%
viability, T/C [30]: 92.2%
viability, T/C [31]: 74.2%
viability, T/C [32]: 74.1%
viability, T/C [33]: 79.6%
viability, T/C [34]: 82%
viability, T/C [35]: 94.4%
viability, T/C [36]: 80.8%

Nc1ccn(C2OC(CO)C(O)C2(F)F)c(=O)n1 (centres undefined) + CCn1c(-c2cccnc2C(C)OC)c2c3cc(ccc31)N1CCOC(CC(NC(=O)C(C(C)C)N(C)C(=O)C3(F)CCN(C(=O)C#CC(C)(C)N(C)C)CC3)C(=O)N3CCCC(N3)C(=O)OCC(C)(C)C2)C1
IC50 (second compound 0.000949 µM): 16.7 nM
IC50 (second compound 0.003 µM): 18.4 nM
IC50 (second compound 0.00949 µM): 15.6 nM
IC50 (second compound 0.03 µM): 16.8 nM
IC50 (second compound 0.0949 µM): 14.1 nM
IC50 (second compound 0.3 µM): 12 nM
viability, T/C [1]: 76.9%
viability, T/C [2]: 79.7%
viability, T/C [3]: 15%
viability, T/C [4]: 7.41%
viability, T/C [5]: 10.3%
viability, T/C [6]: 9.82%
viability, T/C [7]: 91.1%
viability, T/C [8]: 87.6%
viability, T/C [9]: 16.5%
viability, T/C [10]: 7.59%
viability, T/C [11]: 8.56%
viability, T/C [12]: 11.9%
viability, T/C [13]: 87.6%
viability, T/C [14]: 72.9%
viability, T/C [15]: 13.3%
viability, T/C [16]: 9.05%
viability, T/C [17]: 9.37%
viability, T/C [18]: 12.1%
viability, T/C [19]: 91.4%
viability, T/C [20]: 79.9%
viability, T/C [21]: 13.5%
viability, T/C [22]: 8.42%
viability, T/C [23]: 8.07%
viability, T/C [24]: 6.73%
viability, T/C [25]: 87.8%
viability, T/C [26]: 66.9%
viability, T/C [27]: 9.91%
viability, T/C [28]: 4.39%
viability, T/C [29]: 7.38%
viability, T/C [30]: 6.23%
viability, T/C [31]: 71.7%
viability, T/C [32]: 58%
viability, T/C [33]: 8.51%
viability, T/C [34]: 3.06%
viability, T/C [35]: 4.98%
viability, T/C [36]: 5.37%
